Holding throughout (type): binding
One test deals with T1, AGTR2 (Homo sapiens, UniProt P50052).
T1 construct: purchased Promega (in-house HiBiT-GPCR construct library, NanoBRET)
T1 sequence (P50052 1-363): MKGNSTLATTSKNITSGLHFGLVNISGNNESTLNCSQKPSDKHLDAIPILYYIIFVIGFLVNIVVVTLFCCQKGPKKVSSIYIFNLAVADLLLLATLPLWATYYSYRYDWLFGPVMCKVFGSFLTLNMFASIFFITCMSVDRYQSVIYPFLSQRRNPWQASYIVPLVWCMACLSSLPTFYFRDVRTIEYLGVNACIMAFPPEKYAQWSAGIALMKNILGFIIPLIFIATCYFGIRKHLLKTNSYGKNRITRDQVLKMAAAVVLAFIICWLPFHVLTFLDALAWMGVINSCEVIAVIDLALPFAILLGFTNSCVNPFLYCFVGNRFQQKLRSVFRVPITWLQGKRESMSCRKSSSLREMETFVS
As to the kind of experiment: NanoBRET screen HiBiT-AGTR2 in HEK293. An outline of the steps:
(§1)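 Tracer binding was scored as fold response, BRET with tracer alone divided by BRET with 20 μM parental competitor; 1.5-fold was the positive cutoff. Transfected HEK293 cells saw tracer at 1 μM and 0.1 μM for 1.5 h.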
For orientation: In BRET a luciferase serves as donor, and the signal depends on an acceptor being close.

For the next test, the target named is T2, P2RY2 (Homo sapiens, UniProt P41231).
T2 construct: purchased Promega (in-house HiBiT-GPCR construct library, NanoBRET)
Kind of test: NanoBRET screen HiBiT-P2RY2 in HEK293. An outline of the steps: as §1

A further test has as its target T3, P2RY10 (Homo sapiens, UniProt O00398).
T3 construct: purchased Promega (in-house HiBiT-GPCR construct library, NanoBRET)
As to the kind of experiment: NanoBRET screen HiBiT-P2RY10 in HEK293. The essentials: as §1

The next test deals with T4, BRS3 (Homo sapiens, UniProt P32247).
T4 construct: purchased Promega (in-house HiBiT-GPCR construct library, NanoBRET)
T4 sequence (P32247 1-399): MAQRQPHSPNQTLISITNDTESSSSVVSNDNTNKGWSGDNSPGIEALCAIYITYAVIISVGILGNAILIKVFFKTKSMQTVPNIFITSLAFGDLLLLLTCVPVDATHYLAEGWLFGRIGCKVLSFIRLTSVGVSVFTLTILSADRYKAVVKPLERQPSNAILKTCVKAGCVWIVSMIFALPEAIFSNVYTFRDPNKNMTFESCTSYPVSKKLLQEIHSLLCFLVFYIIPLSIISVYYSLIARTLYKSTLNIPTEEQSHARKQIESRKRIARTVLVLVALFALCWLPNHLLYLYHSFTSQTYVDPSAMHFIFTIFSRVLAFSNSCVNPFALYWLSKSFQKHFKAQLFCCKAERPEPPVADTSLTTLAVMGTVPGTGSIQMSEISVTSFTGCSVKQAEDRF
As to the kind of experiment: NanoBRET screen HiBiT-BRS3 in HEK293. An outline of the steps:
as §1

In a further test the target is T5, MTNR1B (Homo sapiens, UniProt P49286).
T5 construct: purchased Promega (in-house HiBiT-GPCR construct library, NanoBRET)
T5 sequence (P49286 1-362): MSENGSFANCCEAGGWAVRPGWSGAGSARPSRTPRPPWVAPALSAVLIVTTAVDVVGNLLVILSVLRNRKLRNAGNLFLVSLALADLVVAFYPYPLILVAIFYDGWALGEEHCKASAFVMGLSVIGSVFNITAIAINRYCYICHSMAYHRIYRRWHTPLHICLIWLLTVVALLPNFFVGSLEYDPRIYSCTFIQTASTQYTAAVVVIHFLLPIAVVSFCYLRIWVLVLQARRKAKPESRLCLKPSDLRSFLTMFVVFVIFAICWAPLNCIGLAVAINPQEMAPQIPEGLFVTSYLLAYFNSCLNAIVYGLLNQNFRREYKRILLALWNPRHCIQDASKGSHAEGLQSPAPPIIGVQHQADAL
Kind of test: NanoBRET screen HiBiT-MTNR1B in HEK293. The settings on record: MTNR1B. An outline of the steps: as §1

The target in another test is T6, GCGR (Homo sapiens, UniProt P47871).
T6 construct: purchased Promega (in-house HiBiT-GPCR construct library, NanoBRET)
As to the kind of experiment: NanoBRET screen HiBiT-GCGR in HEK293. The settings on record: GCGR. An outline of the steps: as §1

[1] abbreviates: tracer at 1μM, listed as amitriptyline-b-2-NB590.
[2] abbreviates: tracer at 0.1μM, listed as amitriptyline-b-2-NB590.

T3 sequence (O00398 whole entry, one chain of several): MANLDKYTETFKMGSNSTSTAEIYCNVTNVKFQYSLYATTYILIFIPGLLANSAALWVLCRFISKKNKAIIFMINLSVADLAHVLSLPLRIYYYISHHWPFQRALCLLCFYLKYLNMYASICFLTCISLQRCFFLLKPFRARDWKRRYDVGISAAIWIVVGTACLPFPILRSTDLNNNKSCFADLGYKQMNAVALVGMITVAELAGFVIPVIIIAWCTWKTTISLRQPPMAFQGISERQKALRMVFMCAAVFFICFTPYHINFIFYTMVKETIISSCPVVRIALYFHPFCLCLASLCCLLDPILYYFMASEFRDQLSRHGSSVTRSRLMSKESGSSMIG
T2 sequence (P41231 whole entry): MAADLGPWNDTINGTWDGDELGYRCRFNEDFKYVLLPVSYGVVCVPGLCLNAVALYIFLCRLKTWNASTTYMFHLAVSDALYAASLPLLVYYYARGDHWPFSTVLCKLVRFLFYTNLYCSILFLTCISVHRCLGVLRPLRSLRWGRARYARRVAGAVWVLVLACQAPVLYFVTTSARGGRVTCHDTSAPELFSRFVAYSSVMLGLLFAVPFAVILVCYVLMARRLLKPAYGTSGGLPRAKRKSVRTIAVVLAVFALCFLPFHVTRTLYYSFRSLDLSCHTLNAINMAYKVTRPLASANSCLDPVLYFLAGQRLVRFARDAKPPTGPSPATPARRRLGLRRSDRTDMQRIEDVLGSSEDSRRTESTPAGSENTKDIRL
T6 sequence (P47871 26-477): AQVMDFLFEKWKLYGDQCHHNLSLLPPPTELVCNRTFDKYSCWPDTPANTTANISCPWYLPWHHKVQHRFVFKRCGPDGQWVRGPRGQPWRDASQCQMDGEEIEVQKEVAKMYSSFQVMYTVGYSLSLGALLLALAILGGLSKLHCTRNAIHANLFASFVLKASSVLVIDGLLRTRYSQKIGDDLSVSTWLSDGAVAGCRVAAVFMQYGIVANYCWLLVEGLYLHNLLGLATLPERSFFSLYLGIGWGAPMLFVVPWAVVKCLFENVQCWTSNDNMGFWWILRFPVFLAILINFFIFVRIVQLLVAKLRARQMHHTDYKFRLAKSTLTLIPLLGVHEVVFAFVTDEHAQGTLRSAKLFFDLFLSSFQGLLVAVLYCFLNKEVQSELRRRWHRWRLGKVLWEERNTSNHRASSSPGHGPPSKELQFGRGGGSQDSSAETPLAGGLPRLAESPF

For `N#CN=C(NCCCOc1cccc(CN2CCCCC2)c1)NCCNC(=O)CCOCCOCCOCCOCCNC(=O)CCc1ccc2n1[B-](F)(F)[N+]1=C(c3ccc[nH]3)C=CC1=C2` [Aminopotentidine-2-NB590], the “NanoBRET Fold Response” value on AGTR2 (AGTR2, tracer 0.1μM) amounted to 0.98; at AGTR2 (AGTR2, tracer 1μM), 1.04; at P2RY2 (P2RY2, tracer 0.1μM) it was 1.01; at P2RY2 (P2RY2, tracer 1μM) it was 1.00; on P2RY10 (P2RY10, tracer 0.1μM), 1.03; on P2RY10 (P2RY10, tracer 1μM), 1.02. The “NanoBRET Fold Response” value is 1.02 on BRS3 (BRS3, tracer 0.1μM); 1.00 on BRS3 (BRS3, tracer 1μM); 0.99 on MTNR1B (tracer 0.1μM); 0.99 on MTNR1B (tracer 1μM); 0.95 at GCGR (tracer 0.1μM); 1.04 at GCGR (tracer 1μM).

With `Cc1nc2n(c(=O)c1CCN1CCC(c3noc4cc(F)ccc34)CC1)CCCC2OC(=O)NCCOCCOCCOCCOCCNC(=O)CCc1ccc2n1[B-](F)(F)[N+]1=C(c3ccc[nH]3)C=CC1=C2` (stereo not drawn) [Risperidone-2-NB590], the “NanoBRET Fold Response” value on AGTR2 (AGTR2, tracer 0.1μM) was 1.10; at AGTR2 (AGTR2, tracer 1μM), 0.94; on P2RY2 (P2RY2, tracer 0.1μM), 1.08; at P2RY2 (P2RY2, tracer 1μM), 0.86; at P2RY10 (P2RY10, tracer 0.1μM) it was 1.14; at P2RY10 (P2RY10, tracer 1μM), 1.14. The “NanoBRET Fold Response” value is 0.95 on BRS3 (BRS3, tracer 0.1μM); 0.98 on BRS3 (BRS3, tracer 1μM); 0.99 at MTNR1B (tracer 0.1μM); 0.92 at MTNR1B (tracer 1μM); 0.97 on GCGR (tracer 0.1μM); 0.93 on GCGR (tracer 1μM).

Consider `CN(C)CCC=C1c2ccccc2CCc2ccc(C(=O)NCCNC(=O)CCOCCOCCOCCOCCNC(=O)CCc3ccc4n3[B-](F)(F)[N+]3=C(c5ccc[nH]5)C=CC3=C4)cc21` [Amitriptyline-b-2-NB590], for which the “NanoBRET Fold Response” value on AGTR2 (tracer at 0.1μM) came to 0.84; on AGTR2 (setting [1]), 0.87; at P2RY2 (setting [2]), 1.04; on P2RY2 (setting [1]) it was 0.92; on P2RY10 (setting [2]) it was 1.14; on P2RY10 (setting [1]), 1.38. Also, the “NanoBRET Fold Response” value at BRS3 (tracer at 0.1μM) was found to be 0.92; on BRS3 (setting [1]), 1.07; at MTNR1B (tracer 0.1μM), 1.02; at MTNR1B (tracer 1μM) it was 1.04; on GCGR (tracer 0.1μM), 0.91; on GCGR (tracer 1μM) it was 1.03.

The values above are taken from PMC8151276, “An Integrated Approach toward NanoBRET Tracers for Analysis of GPCR Ligand Engagement” (Molecules, 2021).
